Laboratory results taken from patent EP4703359A1 (Shanghai Simr Biotechnology Co., Ltd., priority 2023, dated 2024).

Columns and labels:
[1] = target: T1, α2-GABAA receptor (Homo sapiens, UniProt P18507+P47869); assay: Radioactive ligand (3H-flunitrazepam) competitive binding assay, BZD site of membrane proteins of α2-GABAAR-HEK293 cells; conditions: competition with 1 nM 3H-flunitrazepam; HEK293 membranes expressing α2, β3, γ2 subunits; Ki calculated from IC50; read-out: α2 Ki
T1 construct: expressed in transfected cells
From the text: The α subunit, β subunit, and γ subunit are indispensable for forming a fully functional GABAA receptor. In this example, HEK293 cells stably expressing α2-GABAA receptors (α2-GABAAR) were constructed and screened respectively via liposome transfection (Felgner, P.L., et al. Proceedings of the National Academy of Sciences, 1987, 84: 7413-7417). The α2-GABAAR-HEK293 cell model co-expresses the α2 subunit (protein sequence referenced under GenBank accession number: NM_000807.4), β3 subunit (protein sequence referenced under GenBank accession number: NM_000814.5), and γ2 subunit (protein sequence referenced under GenBank accession number: NM_000816.3).
The above cell lines were subcultured. α2-GABAAR-HEK293 cells were amplified for testing the affinity of compounds to the benzodiazepine (BZD) site of GABAA receptors. Some of the α2-GABAAR-HEK293 cells in suspension during subculturing were plated on glass slides pre-treated with Poly-D-Lysine for electrophysiological testing (method reference: Patent CN 107344936 A, paragraph 0586).
The affinity of the compound for the α2-GABAA receptor was determined by competing with ^3H-flunitrazepam (isotope ^3H-labeled flunitrazepam) for binding to the BZD site of membrane proteins in HEK293 cells stably expressing human α2-GABAAR.
Membrane preparation: Cells were suspended in 50 mM Tris-HCl buffer (pH=7.4), homogenized on ice using a homogenizer for 20 seconds with 10 repetitions, and centrifuged at 4°C, 1000g for 10 minutes. The supernatant was collected, and the above steps were repeated. The supernatant was centrifuged at 4°C (33,800 × g; Thermo, rotor: A27-8x50) for 60 minutes, and the pellet was resuspended in Tris buffer (50 mM Tris-HCl, 10 mM MgCl2, 0.5 mM EDTA, 10% glycerol). The protein concentration was determined using the bicinchoninic acid (BCA) protein assay based on the copper ion reduction method (BCA kit purchased from Pierce (Annoron)). Aliquots of 1 mL were prepared and stored at -80°C.
Radioactive ligand competitive binding assay: This assay was conducted in a 200 µL system (96-well plate), containing 100 µL of cell membrane. The concentration of ^3H-flunitrazepam was 1 nM, and the concentration of the test compound ranged from […]. Flumazenil was used as a control. The low signal control well (Low Control, LC) was added with 1 µL of 2 mM flumazenil (final concentration 10 µM), while the high signal control well (High Control, HC) was added with 1 µL of dimethyl sulfoxide. The final concentration of the target membrane protein was 5 µg/well. All test compound stock solutions were prepared as 10 mM solutions in dimethyl sulfoxide. The working concentration of the samples was prepared by diluting all samples to 0.2 mM with dimethyl sulfoxide, followed by a 4-fold serial dilution to obtain a total of 8 concentration gradients. The 96-well plate was sealed with sealing film and then incubated on a shaker at room temperature for 1 hour. The GF/C filter plate was also soaked with a soaking buffer (0.3% PEI (polyethyleneimine, purchased from: Sigma-Aldrich, model: P314), stored at 4°C) for at least 0.5 hours. After the incubation was completed, the mixture was collected onto a GF/C filter plate using a cell harvester and washed four times with wash buffer (50 mM Tris-HCl, pH 7.4, stored at 4°C). After drying in a 50°C oven for 1 hour, the dried GF/C filter plate was sealed at the bottom with a film. The residual radioactivity on the filter membrane was detected using liquid scintillation counting. Each well was filled with 50 µL of scintillation fluid and sealed. Readings were taken using a Microbeta^2 (microplate counter, purchased from PerkinElmer, model: CNLL0153). The inhibitory activity of the test sample on the binding of ^3H-flunitrazepam to GABAA receptor membrane protein was calculated. […]

[2] = target: T1, α2-GABAA receptor; assay: Whole-cell patch-clamp electrophysiology, positive allosteric modulatory activity in α2-GABAAR-HEK293 cells; format: cell-based; conditions: compound 100 nM; GABA 0.10 to 0.11 µM (approximately EC7-8); normalized to reference compound CVL-865 (= 100%); read-out: α2-GABAAR Positive allosteric modulatory activity
In short: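 HEK293 cells stably co-expressing α2β3γ2 GABAA receptor, whole-cell patch clamp at -60 mV. Compounds at 100 nM final applied with GABA 0.10–0.11 µM (~EC7-8) after GABA-only current stabilized. […]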

Row | SMILES | Ki [1] | Emax at 0.1 µM [2]
1 | CCCNC(=O)c1nc2c(-c3cc(F)cc(C#N)c3)cccn2c1N [Example 55, 3-Amino-8-(3-cyano-5-fluorophenyl)-N-propylimidazo[1,2-a]pyridine-2-carboxamide] | 0.0278 µM | 89%
2 | CCCNC(=O)c1nc2c(-c3cc(C)ccc3OC)cccn2c1N [Example 49, 3-Amino-8-(2-methoxy-5-methylphenyl)-N-propylimidazo[1,2-a]pyridine-2-carboxamide] | 0.0192 µM | 156%
3 | CCCNC(=O)c1nc2c(-c3c(F)ccc(F)c3OC)cccn2c1N [Example 79, 3-Amino-8-(3,6-difluoro-2-methoxyphenyl)-N-propylimidazo[1,2-a]pyridine-2-carboxamide] | 0.0401 µM | 71%
4 | CCCNC(=O)c1nc2c(-c3cc4c(cc3OC)N(C)C(=O)CO4)c(F)ccn2c1N [Example 123, 3-Amino-7-fluoro-8-(6-methoxy-4-methyl-3-oxo-3,4-dihydro-2H-benzo[b][1,4]oxazin-7-yl)-N-propylimidazo[1,2-a]pyridine-2-carboxamide] | 0.00497 µM | 71%
5 | CCCNC(=O)c1nc2c(OCc3c(F)cccc3OC)cccn2c1N [Example 151, 3-Amino-8-((2-fluoro-6-methoxybenzyl)oxy)-N-propylimidazo[1,2-a]pyridine-2-carboxamide] | 0.087 µM | 35%
6 | CCCNC(=O)c1nc2c(-c3cccc(C)c3)cccn2c1N [Example 48, 3-Amino-N-propyl-8-(3-methylphenyl)imidazo[1,2-a]pyridine-2-carboxamide] | 0.0142 µM | 71%
7 | [2H]C([2H])([2H])Oc1cccc(F)c1-c1cccn2c(N)c(C(=O)NCCC)nc12 [Example 138, 3-Amino-8-(2-fluoro-6-(methoxy-d3)phenyl)-N-propylimidazo[1,2-a]pyridine-2-carboxamide] | 0.0111 µM | 77%
8 | CCCNC(=O)c1nc2c(-c3cc(F)ccc3F)cccn2c1N [Example 52, 3-Amino-8-(2,5-difluorophenyl)-N-propylimidazo[1,2-a]pyridine-2-carboxamide] | 0.0112 µM | 63%
9 | COc1cccc(F)c1-c1cccn2c(N)c(C(=O)NC3CC3)nc12 [Example 5, 3-Amino-8-(2-fluoro-6-methoxyphenyl)-N-cyclopropylimidazo[1,2-a]pyridine-2-carboxamide] | 0.039 µM | 65%
10 | COc1ccc(C#N)cc1-c1cccn2c(N)c(C(=O)NC3CC(C)C3)nc12 (stereo not shown) [Example 34, 3-Amino-8-(5-cyano-2-methoxyphenyl)-N-(3-methylcyclobutyl)imidazo[1,2-a]pyridine-2-carboxamide] | 0.00507 µM | 101%
11 | CCCCNC(=O)c1nc2c(-c3c(F)cccc3OC)cccn2c1N [Example 26, 3-Amino-8-(2-fluoro-6-methoxyphenyl)-N-butylimidazo[1,2-a]pyridine-2-carboxamide] | 0.0178 µM | 97%
12 | CCCNC(=O)c1nc2c(-c3cc(C4CC4)ccc3OC)cccn2c1N [Example 68, 3-Amino-8-(5-cyclopropyl-2-methoxyphenyl)-N-propylimidazo[1,2-a]pyridine-2-carboxamide] | 0.051 µM | 92%
13 | CCCNC(=O)c1nc2c(-c3cc(C)cnc3OC)cccn2c1N [Example 83, 3-Amino-8-(2-methoxy-5-methylpyridin-3-yl)-N-propylimidazo[1,2-a]pyridine-2-carboxamide] | 0.0059 µM | 164%
14 | CCCNC(=O)c1nc2c(-c3cccc(CC#N)c3)cccn2c1N [Example 36, 3-amino-8-(3-(cyanomethyl)phenyl)-N-propylimidazo[1,2-a]pyridine-2-carboxamide] | 0.0212 µM | 181%
15 | CCCNC(=O)c1nc2c(-c3cc(C)ccc3F)cccn2c1N [Example 50, 3-Amino-8-(2-fluoro-5-methylphenyl)-N-propylimidazo[1,2-a]pyridine-2-carboxamide] | 0.00395 µM | 104%
16 | CCCNC(=O)c1nc2c(-c3c(Cl)cccc3OC)cccn2c1N [Example 72, 3-Amino-8-(2-chloro-6-methoxyphenyl)-N-propylimidazo[1,2-a]pyridine-2-carboxamide] | 0.095 µM | 44%
17 | CCCNC(=O)c1nc2c(-c3cc(F)cnc3OC)cccn2c1N [Example 84, 3-Amino-8-(5-fluoro-2-methoxypyridin-3-yl)-N-propylimidazo[1,2-a]pyridine-2-carboxamide] | 0.042 µM | 133%
18 | COc1ccc(C)cc1-c1cccn2c(N)c(C(=O)NC3CC(C)C3)nc12 (stereo not shown) [Example 33, 3-Amino-8-(2-methoxy-5-methylphenyl)-N-(3-methylcyclobutyl)imidazo[1,2-a]pyridine-2-carboxamide] | 0.0155 µM | 155%
19 | CCCNC(=O)c1nc2c(Oc3cc(F)ccc3OC)cccn2c1N [Example 144, 3-Amino-8-(5-fluoro-2-methoxyphenoxy)-N-propylimidazo[1,2-a]pyridine-2-carboxamide] | 0.00497 µM | 95%
20 | CCCNC(=O)c1nc2c(-c3cc4c(cc3OC)N(C)C(=O)CO4)cccn2c1N [Example 91, 3-Amino-8-(6-methoxy-4-methyl-3-oxo-3,4-dihydro-2H-benzo[b][1,4]oxazin-7-yl)-N-propylimidazo[1,2-a]pyridine-2-carboxamide] | 0.027 µM | 93%
21 | CCCNC(=O)c1nc2c(-c3cc(OC)ccc3OC)cccn2c1N [Example 69, 3-Amino-8-(2,5-dimethoxyphenyl)-N-propylimidazo[1,2-a]pyridine-2-carboxamide] | 0.0308 µM | 70%
22 | CCCNC(=O)c1nc2c(N3CCOCC3C)cccn2c1N (stereo not shown) [Example 149, 3-Amino-8-(3-methylmorpholino)-N-propylimidazo[1,2-a]pyridine-2-carboxamide] | 0.09 µM | 44%
23 | COc1cccc(F)c1-c1cccn2c(N)c(C(=O)NCCCF)nc12 [Example 27, 3-Amino-8-(2-fluoro-6-methoxyphenyl)-N-(3-fluoropropyl)imidazo[1,2-a]pyridine-2-carboxamide] | 0.032 µM | 84%
24 | CCCNC(=O)c1nc2c(-c3cc(C(F)(F)F)ccc3OC)cccn2c1N [Example 58, 3-Amino-8-(2-methoxy-5-(trifluoromethyl)phenyl)-N-propylimidazo[1,2-a]pyridine-2-carboxamide] | 0.0345 µM | 103%
25 | CCCNC(=O)c1nc2c(-c3c(OC)ccc(C)c3F)cccn2c1N [Example 77, 3-Amino-8-(2-fluoro-6-methoxy-3-methylphenyl)-N-propylimidazo[1,2-a]pyridine-2-carboxamide] | 0.00517 µM | 126%
26 | CCCNC(=O)c1nc2c(-c3c(OC)ccc(F)c3F)cccn2c1N [Example 76, 3-Amino-8-(2,3-difluoro-6-methoxyphenyl)-N-propylimidazo[1,2-a]pyridine-2-carboxamide] | 0.0129 µM | 101%
